Measurements published in US20260015358A1, “BICYCLIC DERIVATIVES, COMPOSITIONS AND USES THEREOF” (Danatlas Pharmaceuticals Co., Ltd., priority 2023, published 2026).
Each block holds one compound with its values, some of them ahead of it.

Molecular target: WRN [UniPro: Q14191 (WRN_HUMAN), N500-C946] (Homo sapiens (Human), UniProt Q14191)
Assay: WRN unwinding assay (FORKF DNA, fluorescence)
Type: biochemical
Conditions: Table 14
Description: WRN unwinding assay was initiated to evaluate potential inhibitory effect of compounds for WEN helicase activity. WRN [UniPro: Q14191 (WRN_HUMAN), N500-C946] was expressed and purified in insect system and stored at −80° C. in aliquots. […] Compounds dissolved in DMSO (Sigma, D8418) were plated into a 96-well intermediate plate (BioFil, VWP-032-096) for 3-fold serial titration for 10 points using DMSO, and well-to-well transfer the titrated compounds into another 96-well intermediate plate including assay buffer in advance. Shake the 96-well intermediate plate at 600 rpm for 10 min. to fully mix. Specifically, a 3× working mixture of WRN was diluted to a concentration of 60 nM in assay buffer. […] After centrifuging at 1000 rpm and shaking at 500 rpm, the assay plate was pre-incubated for 30 min. Then, […] 3×FORKF DNA and ATP working mixture was dispensed into assay plate. Plate was sealed, centrifuged and incubated for an additional 40 min. at 25° C. […] Each concentration of compound was tested in duplicates in the assay plate. Average fluorescence signal of high control (Wells with 1% DMSO) was calculated as High Control (HC). Average fluorescence signal of low control (Wells with no WRN protein) was calculated as Low control (LC).
IC50 values were determined by fitting the data to the standard 4 parameters with Hill Slope using GraphPad Prism software.

Chain of WRN [UniPro: Q14191 (WRN_HUMAN), N500-C946] (Q14191 500-946): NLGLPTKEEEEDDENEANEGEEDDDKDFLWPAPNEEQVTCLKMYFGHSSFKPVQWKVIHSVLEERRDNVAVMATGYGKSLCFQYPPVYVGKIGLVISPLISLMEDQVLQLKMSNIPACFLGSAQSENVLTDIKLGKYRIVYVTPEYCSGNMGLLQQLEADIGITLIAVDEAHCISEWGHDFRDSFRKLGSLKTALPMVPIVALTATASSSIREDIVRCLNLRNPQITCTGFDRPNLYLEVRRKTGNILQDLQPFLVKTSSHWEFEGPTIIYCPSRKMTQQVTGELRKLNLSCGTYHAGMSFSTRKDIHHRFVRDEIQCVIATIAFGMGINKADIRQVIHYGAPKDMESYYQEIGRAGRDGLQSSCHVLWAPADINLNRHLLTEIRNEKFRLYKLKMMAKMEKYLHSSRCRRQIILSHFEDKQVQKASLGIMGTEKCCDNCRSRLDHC

SMILES: CCc1c(N2CCN(C(=O)CNC(=O)OC(C)C)CC2)c(=O)n2nc(C3=CCOCC3)nc2n1CC(=O)Nc1ccc(C(F)(F)F)cc1Cl [Example 172, Isopropyl (2-(4-(4-(2-((2-chloro-4-(trifluoromethyl)phenyl)amino)-2-oxoethyl)-2-(3,6-dihydro-2H-pyran-4-yl)-5-ethyl-7-oxo-4,7-dihydro-[1,2,4]triazolo[1,5-a]pyrimidin-6-yl)piperazin-1-yl)-2-oxoethyl)carbamate]
IC50: 0.1 to 1 µM

SMILES: CCc1c(N2CCN(C(=O)CNC(=O)c3ccccc3F)CC2)c(=O)n2nc(C3=CCOCC3)nc2n1CC(=O)Nc1sc(C)cc1Cl [Example 151, N-(2-(4-(4-(2-((3-chloro-5-methylthiophen-2-yl)amino)-2-oxoethyl)-2-(3,6-dihydro-2H-pyran-4-yl)-5-ethyl-7-oxo-4,7-dihydro-[1,2,4]triazolo[1,5-a]pyrimidin-6-yl)piperazin-1-yl)-2-oxoethyl)-2-fluorobenzamide]
IC50: 0.1 to 1 µM

SMILES: CCc1c(N2CCC3(CCN(C(=O)CNC(=O)c4ccccc4)C3)C2)c(=O)n2nc(C3=CCOCC3)nc2n1CC(=O)Nc1ccc(C(F)(F)F)cc1Cl (stereo not shown) [Example 139, N-(2-(7-(4-(2-((2-Chloro-4-(trifluoromethyl)phenyl)amino)-2-oxoethyl)-2-(3,6-dihydro-2H-pyran-4-yl)-5-ethyl-7-oxo-4,7-dihydro-[1,2,4]triazolo[1,5-a]pyrimidin-6-yl)-2,7-diazaspiro[4.4]nonan-2-yl)-2-oxoethyl)benzamide]
IC50: > 1 µM

SMILES: CCc1c(N2CCN(C(=O)CNC(=O)c3ccccc3F)CC2)c(=O)n2nc(C3=CCOCC3)nc2n1CC(=O)Nc1nc(C)cs1 [Example 159, N-(2-(4-(2-(3,6-Dihydro-2H-pyran-4-yl)-5-ethyl-4-(2-((4-methylthiazol-2-yl)amino)-2-oxoethyl)-7-oxo-4,7-dihydro-[1,2,4]triazolo[1,5-a]pyrimidin-6-yl)piperazin-1-yl)-2-oxoethyl)-2-fluorobenzamide]
IC50: 0.1 to 1 µM

SMILES: CCc1c(N2CCN(C(=O)CNC(=O)c3ccccc3F)CC2)c(=O)n2nc(C3=CCOCC3)nc2n1CC(=O)Nc1nnc(C(F)(F)F)s1 [Example 155, N-(2-(4-(2-(3,6-Dihydro-2H-pyran-4-yl)-5-ethyl-7-oxo-4-(2-oxo-2-((5-(trifluoromethyl)-1,3,4-thiadiazol-2-yl)amino)ethyl)-4,7-dihydro-[1,2,4]triazolo[1,5-a]pyrimidin-6-yl)piperazin-1-yl)-2-oxoethyl)-2-fluorobenzamide]
IC50: > 1 µM

SMILES: CCc1c(N2CCN(C(=O)c3nnc(-c4ccccc4F)[nH]3)CC2)c(=O)n2nc(C3=CCOCC3)nc2n1CC(=O)Nc1ccc(C(F)(F)F)cc1F [Example 309, 2-(2-(3,6-Dihydro-2H-pyran-4-yl)-5-ethyl-6-(4-(5-(2-fluorophenyl)-4H-1,2,4-triazole-3-carbonyl)piperazin-1-yl)-7-oxo-[1,2,4]triazolo[1,5-a]pyrimidin-4(7H)-yl)-N-(2-fluoro-4-(trifluoromethyl)phenyl)acetamide]
IC50: 0.1 to 1 µM

SMILES: CCc1c(N2CCN(C(=O)CNC(=O)c3ccccc3F)CC2)c(=O)n2nc(C3=CCOCC3)nc2n1CC(=O)Nc1ncc(C(F)(F)F)s1 [Example 158, N-(2-(4-(2-(3,6-Dihydro-2H-pyran-4-yl)-5-ethyl-7-oxo-4-(2-oxo-2-((5-(trifluoromethyl)thiazol-2-yl)amino)ethyl)-4,7-dihydro-[1,2,4]triazolo[1,5-a]pyrimidin-6-yl)piperazin-1-yl)-2-oxoethyl)-2-fluorobenzamide]
IC50: 0.1 to 1 µM

SMILES: CCc1c(N2CCN(C(=O)c3[nH]c(=O)oc3C(F)(F)F)CC2)c(=O)n2nc(C3=CCOCC3)nc2n1CC(=O)Nc1ccc(C(F)(F)F)cc1Cl [Example 317, N-(2-Chloro-4-(trifluoromethyl)phenyl)-2-(2-(3,6-dihydro-2H-pyran-4-yl)-5-ethyl-7-oxo-6-(4-(2-oxo-5-(trifluoromethyl)-2,3-dihydrooxazole-4-carbonyl)piperazin-1-yl)-[1,2,4]triazolo[1,5-a]pyrimidin-4(7H)-yl)acetamide]
IC50: 0.1 to 1 µM

SMILES: CCc1c(N2CCN(C(=O)c3cnc4ncnn4c3O)CC2)c(=O)n2nc(C3=CCOCC3)nc2n1CC(=O)Nc1ccc(C(F)(F)F)cc1Cl [Example 52, N-(2-Chloro-4-(trifluoromethyl)phenyl)-2-(2-(3,6-dihydro-2H-pyran-4-yl)-5-ethyl-6-(4-(7-hydroxy-[1,2,4]triazolo[1,5-a]pyrimidine-6-carbonyl)piperazin-1-yl)-7-oxo-[1,2,4]triazolo[1,5-a]pyrimidin-4(7H)-yl)acetamide]
IC50: > 1 µM

SMILES: CCc1c(N2CCN(C(=O)CCO)CC2)c(=O)n2nc(C3=CCOCC3)nc2n1CC(=O)Nc1ccc(C(F)(F)F)cc1Cl [Example 16, N-(2-Chloro-4-(trifluoromethyl)phenyl)-2-(2-(3,6-dihydro-2H-pyran-4-yl)-5-ethyl-6-(4-(3-hydroxypropanoyl)piperazin-1-yl)-7-oxo-[1,2,4]triazolo[1,5-a]pyrimidin-4(7H)-yl)acetamide]
IC50: 0.1 to 1 µM

SMILES: CCc1c(N2CCN(C(=O)CNC(=O)c3ccc(Cl)cc3Cl)CC2)c(=O)n2nc(C3=CCOCC3)nc2n1CC(=O)Nc1ccc(C(F)(F)F)cc1Cl [Example 127, 2,4-Dichloro-N-(2-(4-(4-(2-((2-chloro-4-(trifluoromethyl)phenyl)amino)-2-oxoethyl)-2-(3,6-dihydro-2H-pyran-4-yl)-5-ethyl-7-oxo-4,7-dihydro-[1,2,4]triazolo[1,5-a]pyrimidin-6-yl)piperazin-1-yl)-2-oxoethyl)benzamide]
IC50: 0.1 to 1 µM

The next lines start with the values.

IC50: > 1 µM
SMILES: CCc1c(N2CCN(C(=O)CNC(=O)c3ccccc3F)CC2)c(=O)n2nc(C3=CCOCC3)nc2n1CC(=O)Nc1nnc(C2CC2)s1 [Example 156, N-(2-(4-(4-(2-((5-Cyclopropyl-1,3,4-thiadiazol-2-yl)amino)-2-oxoethyl)-2-(3,6-dihydro-2H-pyran-4-yl)-5-ethyl-7-oxo-4,7-dihydro-[1,2,4]triazolo[1,5-a]pyrimidin-6-yl)piperazin-1-yl)-2-oxoethyl)-2-fluorobenzamide]

IC50: > 1 µM
SMILES: CCc1c(N2CCN(C(=O)c3cn(C)c(=O)n(C)c3=O)CC2)c(=O)n2nc(C3=CCOCC3)nc2n1CC(=O)Nc1ccc(C(F)(F)F)cc1Cl [Example 51, N-(2-Chloro-4-(trifluoromethyl)phenyl)-2-(2-(3,6-dihydro-2H-pyran-4-yl)-6-(4-(1,3-dimethyl-2,4-dioxo-1,2,3,4-tetrahydropyrimidine-5-carbonyl)piperazin-1-yl)-5-ethyl-7-oxo-[1,2,4]triazolo[1,5-a]pyrimidin-4(7H)-yl)acetamide]

IC50: > 1 µM
SMILES: CCc1c(N2CCN(C(=O)C(C)(C)NC(=O)c3ccccc3)CC2)c(=O)n2nc(C3=CCOCC3)nc2n1CC(=O)Nc1ccc(C(F)(F)F)cc1Cl [Example 137, N-(1-(4-(4-(2-((2-Chloro-4-(trifluoromethyl)phenyl)amino)-2-oxoethyl)-2-(3,6-dihydro-2H-pyran-4-yl)-5-ethyl-7-oxo-4,7-dihydro-[1,2,4]triazolo[1,5-a]pyrimidin-6-yl)piperazin-1-yl)-2-methyl-1-oxopropan-2-yl)benzamide]

IC50: 0.1 to 1 µM
SMILES: CCc1c(N2CCN(C(=O)CNS(=O)(=O)CC)CC2)c(=O)n2nc(C3=CCOCC3)nc2n1CC(=O)Nc1ccc(C(F)(F)F)cc1Cl [Example 39, N-(2-Chloro-4-(trifluoromethyl)phenyl)-2-(2-(3,6-dihydro-2H-pyran-4-yl)-5-ethyl-6-(4-((ethylsulfonyl)glycyl)piperazin-1-yl)-7-oxo-[1,2,4]triazolo[1,5-a]pyrimidin-4(7H)-yl)acetamide]

IC50: 0.1 to 1 µM
SMILES: CCc1c(N2CCN(C(=O)C(C)O)CC2)c(=O)n2nc(C3=CCOCC3)nc2n1CC(=O)Nc1ccc(C(F)(F)F)cc1Cl (stereo not shown) [Example 12, N-(2-Chloro-4-(trifluoromethyl)phenyl)-2-(2-(3,6-dihydro-2H-pyran-4-yl)-5-ethyl-6-(4-(2-hydroxypropanoyl)piperazin-1-yl)-7-oxo-[1,2,4]triazolo[1,5-a]pyrimidin-4(7H)-yl)acetamide]

IC50: 0.1 to 1 µM
SMILES: CCc1c(N2CCN(C(=O)CNC(=O)c3ccccc3N3CCOCC3)CC2)c(=O)n2nc(N3CCOCC3)nc2n1CC(=O)Nc1ccc(C(F)(F)F)cc1Cl [Example 247, N-(2-(4-(4-(2-((2-Chloro-4-(trifluoromethyl)phenyl)amino)-2-oxoethyl)-5-ethyl-2-morpholino-7-oxo-4,7-dihydro-[1,2,4]triazolo[1,5-a]pyrimidin-6-yl)piperazin-1-yl)-2-oxoethyl)-2-morpholinobenzamide]

IC50: 0.1 to 1 µM
SMILES: CCc1c(N2CCN(C(=O)CNC(=O)c3cccc(Cl)c3)CC2)c(=O)n2nc(C3=CCOCC3)nc2n1CC(=O)Nc1ccc(C(F)(F)F)cc1Cl [Example 175, 3-Chloro-N-(2-(4-(4-(2-((2-chloro-4-(trifluoromethyl)phenyl)amino)-2-oxoethyl)-2-(3,6-dihydro-2H-pyran-4-yl)-5-ethyl-7-oxo-4,7-dihydro-[1,2,4]triazolo[1,5-a]pyrimidin-6-yl)piperazin-1-yl)-2-oxoethyl)benzamide]

IC50: 0.1 to 1 µM
SMILES: CCc1c(N2CCN(C(=O)CN)CC2)c(=O)n2nc(C3=CCOCC3)nc2n1CC(=O)Nc1ccc(C(F)(F)F)cc1Cl [Example 38, N-(2-Chloro-4-(trifluoromethyl)phenyl)-2-(2-(3,6-dihydro-2H-pyran-4-yl)-5-ethyl-6-(4-glycylpiperazin-1-yl)-7-oxo-[1,2,4]triazolo[1,5-a]pyrimidin-4(7H)-yl)acetamide]
